Test system: giant foxtail (Setaria faberii)
Assay: Test B pre-/postemergence plant response
Assay type: in vivo
Settings: Postemergence, 125 g ai/ha; scale 0 to 100 (0 no effect, 100 complete control)
Summary of the method: (§1)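 Plants treated either at seeding (loam/sand soil) or postemergence at 2 to 18 cm height, using a surfactant-containing non-phytotoxic solvent formulation. Evaluation was visual after 13 to 15 days, 0 to 100 scale relative to controls.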

Structure (SMILES) | Plant response rating, Foxtail, Giant
CCCCn1c(-c2cccc(Cl)c2)ncc(C(=O)C2=C(O)CCCC2=O)c1=O [Compound 146] | 95

Same assay, conditions: Postemergence, 250 g ai/ha; scale 0 to 100 (0 no effect, 100 complete control); 13 to 15 days

Structure (SMILES) | Plant response rating, Foxtail, Giant
CCCCn1c(-c2cccc(Cl)c2)ncc(C(=O)C2=C(O)CCCC2=O)c1=O [Compound 146] | 98

Test system: downy bromegrass (Bromus tectorum)
Assay: Test B pre-/postemergence plant response
Assay type: in vivo
Settings: 62 g ai/ha, postemergence; 0 is no effect, 100 is complete control; 13 to 15 days
Summary of the method: as §1

Structure (SMILES) | Bromegrass, Downy plant response rating (0 to 100 scale)
CCCCn1c(-c2cccc(Cl)c2)ncc(C(=O)C2=C(O)CCCC2=O)c1=O [Compound 146] | 5

Same assay, conditions: Postemergence, 31 g ai/ha; 0 to 100 scale (0 no effect, 100 complete control)

Structure (SMILES) | Plant response rating, Bromegrass, Downy
CCCCn1c(-c2cccc(Cl)c2)ncc(C(=O)C2=C(O)CCCC2=O)c1=O [Compound 146] | 0

Same assay, conditions: Postemergence, 125 g ai/ha; scale 0 to 100 (0 no effect, 100 complete control)

Structure (SMILES) | Plant response rating, Bromegrass, Downy
CCCCn1c(-c2cccc(Cl)c2)ncc(C(=O)C2=C(O)CCCC2=O)c1=O [Compound 146] | 10

Same assay, conditions: Postemergence, 250 g ai/ha; scale 0 to 100 (0 no effect, 100 complete control); 13 to 15 days

Structure (SMILES) | Plant response rating, Bromegrass, Downy
CCCCn1c(-c2cccc(Cl)c2)ncc(C(=O)C2=C(O)CCCC2=O)c1=O [Compound 146] | 35

Test system: blackgrass (Alopecurus myosuroides)
Assay: Test B pre-/postemergence plant response
Assay type: in vivo
Settings: 62 g ai/ha, postemergence; 0 is no effect, 100 is complete control; 13 to 15 days
Summary of the method: as §1

Structure (SMILES) | Blackgrass plant response rating (0 to 100 scale)
CCCCn1c(-c2cccc(Cl)c2)ncc(C(=O)C2=C(O)CCCC2=O)c1=O [Compound 146] | 30

Same assay, conditions: Postemergence, 31 g ai/ha; 0 to 100 scale (0 no effect, 100 complete control)

Structure (SMILES) | Plant response rating, Blackgrass
CCCCn1c(-c2cccc(Cl)c2)ncc(C(=O)C2=C(O)CCCC2=O)c1=O [Compound 146] | 5

Same assay, conditions: Postemergence, 125 g ai/ha; scale 0 to 100 (0 no effect, 100 complete control)

Structure (SMILES) | Plant response rating, Blackgrass
CCCCn1c(-c2cccc(Cl)c2)ncc(C(=O)C2=C(O)CCCC2=O)c1=O [Compound 146] | 35

Same assay, conditions: Postemergence, 250 g ai/ha; scale 0 to 100 (0 no effect, 100 complete control); 13 to 15 days

Structure (SMILES) | Plant response rating, Blackgrass
CCCCn1c(-c2cccc(Cl)c2)ncc(C(=O)C2=C(O)CCCC2=O)c1=O [Compound 146] | 50

Test system: green foxtail (Setaria viridis)
Assay: Test B pre-/postemergence plant response
Assay type: in vivo
Settings: 62 g ai/ha, postemergence; 0 is no effect, 100 is complete control; 13 to 15 days
Summary of the method: as §1

Structure (SMILES) | Foxtail, Green plant response rating (0 to 100 scale)
CCCCn1c(-c2cccc(Cl)c2)ncc(C(=O)C2=C(O)CCCC2=O)c1=O [Compound 146] | 55

Same assay, conditions: Postemergence, 31 g ai/ha; 0 to 100 scale (0 no effect, 100 complete control)

Structure (SMILES) | Plant response rating, Foxtail, Green
CCCCn1c(-c2cccc(Cl)c2)ncc(C(=O)C2=C(O)CCCC2=O)c1=O [Compound 146] | 50

Same assay, conditions: Postemergence, 125 g ai/ha; scale 0 to 100 (0 no effect, 100 complete control)

Structure (SMILES) | Plant response rating, Foxtail, Green
CCCCn1c(-c2cccc(Cl)c2)ncc(C(=O)C2=C(O)CCCC2=O)c1=O [Compound 146] | 80

Same assay, conditions: Postemergence, 250 g ai/ha; scale 0 to 100 (0 no effect, 100 complete control); 13 to 15 days

Structure (SMILES) | Plant response rating, Foxtail, Green
CCCCn1c(-c2cccc(Cl)c2)ncc(C(=O)C2=C(O)CCCC2=O)c1=O [Compound 146] | 90

Test system: Surinam grass (Brachiaria decumbens)
Assay: Test B pre-/postemergence plant response
Assay type: in vivo
Settings: 62 g ai/ha, postemergence; 0 is no effect, 100 is complete control; 13 to 15 days
Summary of the method: as §1

Structure (SMILES) | Surinam Grass plant response rating (0 to 100 scale)
CCCCn1c(-c2cccc(Cl)c2)ncc(C(=O)C2=C(O)CCCC2=O)c1=O [Compound 146] | 65

Same assay, conditions: Postemergence, 31 g ai/ha; 0 to 100 scale (0 no effect, 100 complete control)

Structure (SMILES) | Plant response rating, Surinam Grass
CCCCn1c(-c2cccc(Cl)c2)ncc(C(=O)C2=C(O)CCCC2=O)c1=O [Compound 146] | 65

Same assay, conditions: Postemergence, 125 g ai/ha; scale 0 to 100 (0 no effect, 100 complete control)

Structure (SMILES) | Plant response rating, Surinam Grass
CCCCn1c(-c2cccc(Cl)c2)ncc(C(=O)C2=C(O)CCCC2=O)c1=O [Compound 146] | 75

Same assay, conditions: Postemergence, 250 g ai/ha; scale 0 to 100 (0 no effect, 100 complete control); 13 to 15 days

Structure (SMILES) | Plant response rating, Surinam Grass
CCCCn1c(-c2cccc(Cl)c2)ncc(C(=O)C2=C(O)CCCC2=O)c1=O [Compound 146] | 75

Test system: bermudagrass (Cynodon dactylon)
Assay: Test B pre-/postemergence plant response
Assay type: in vivo
Settings: 62 g ai/ha, postemergence; 0 is no effect, 100 is complete control; 13 to 15 days
Summary of the method: as §1

Structure (SMILES) | Bermudagrass plant response rating (0 to 100 scale)
CCCCn1c(-c2cccc(Cl)c2)ncc(C(=O)C2=C(O)CCCC2=O)c1=O [Compound 146] | 90

Same assay, conditions: Postemergence, 31 g ai/ha; 0 to 100 scale (0 no effect, 100 complete control)

Structure (SMILES) | Plant response rating, Bermudagrass
CCCCn1c(-c2cccc(Cl)c2)ncc(C(=O)C2=C(O)CCCC2=O)c1=O [Compound 146] | 85

Same assay, conditions: Postemergence, 125 g ai/ha; scale 0 to 100 (0 no effect, 100 complete control)

Structure (SMILES) | Plant response rating, Bermudagrass
CCCCn1c(-c2cccc(Cl)c2)ncc(C(=O)C2=C(O)CCCC2=O)c1=O [Compound 146] | 100

Same assay, conditions: Postemergence, 250 g ai/ha; scale 0 to 100 (0 no effect, 100 complete control); 13 to 15 days

Structure (SMILES) | Plant response rating, Bermudagrass
CCCCn1c(-c2cccc(Cl)c2)ncc(C(=O)C2=C(O)CCCC2=O)c1=O [Compound 146] | 100

Test system: corn (Zea mays)
Assay: Test B pre-/postemergence plant response
Assay type: in vivo
Settings: 62 g ai/ha, postemergence; 0 is no effect, 100 is complete control; 13 to 15 days
Summary of the method: as §1

Structure (SMILES) | Corn plant response rating (0 to 100 scale)
CCCCn1c(-c2cccc(Cl)c2)ncc(C(=O)C2=C(O)CCCC2=O)c1=O [Compound 146] | 5

Same assay, conditions: Postemergence, 31 g ai/ha; 0 to 100 scale (0 no effect, 100 complete control)

Structure (SMILES) | Plant response rating, Corn
CCCCn1c(-c2cccc(Cl)c2)ncc(C(=O)C2=C(O)CCCC2=O)c1=O [Compound 146] | 0

Same assay, conditions: Postemergence, 125 g ai/ha; scale 0 to 100 (0 no effect, 100 complete control)

Structure (SMILES) | Plant response rating, Corn
CCCCn1c(-c2cccc(Cl)c2)ncc(C(=O)C2=C(O)CCCC2=O)c1=O [Compound 146] | 20

Same assay, conditions: Postemergence, 250 g ai/ha; scale 0 to 100 (0 no effect, 100 complete control); 13 to 15 days

Structure (SMILES) | Plant response rating, Corn
CCCCn1c(-c2cccc(Cl)c2)ncc(C(=O)C2=C(O)CCCC2=O)c1=O [Compound 146] | 35
